Reference: patent publication US20030170309A1, “Pharmaceutical compositions containing polymer and drug assemblies” (priority 2001, published 2003)
In brackets after ≈: the same amount, converted by molar mass. Values belong to the compound of their own block, whether it stands above or below them.

Tests used:
[1] = Dissolution test of amorphous Drug 1 in PBS with varying HPMCAS-MF concentration; assay type: physicochemical; details: amorphous Drug 1 10 mg/mL added, PBS 37°C
Description: First, HPMCAS-MF was dissolved in PBS with stirring at 37° C. and 1.5 mL of this solution was placed in a microcentrifuge tube.

[2] = Solubility of the drug alone (crystalline or amorphous); details: for solubility: thermodynamic from solid
[3] = assay type: physicochemical
Description: To determine the composition of the polymer/drug assemblies, solutions formed from the dispersions of Example 30 and Example 31 in PBS were analyzed using HPLC and NMR, as described in Example 4. […] To measure the free drug concentration using NMR, 2 wt % NaTC/POPC was added to the solution. By measuring the amount of drug that partitioned into NaTC/POPC micelles, the concentration of free drug in PBS was calculated using the equation: […]
where DM is the concentration of drug in micelles (measured by NMR), Kp is the partition coefficient for drug partitioning between water and micelles (30,000), Df is the free drug concentration in PBS, and VM is the volume ratio occupied by micelles in the PBS solution (cm^3 micelles/cm^3 solution=0.021). […] The amount of polymer contained in the polymer/drug assemblies was calculated by subtracting the free polymer and the polymer in the precipitate from the total polymer added to solution (contained in the solid dispersions). […]
The dispersions of Examples 30 and 31 were added to PBS with varying amounts of NaTC/POPC, and the concentration of drug in NaTC/POPC micelles was measured by NMR spectroscopy. […]
The free drug concentration with no micelles present was calculated as follows. […]
Aqueous solutions formed from the solid dispersion of Example 40 were analyzed using DLS and NMR, as described in Examples 3 and 4. […]

[4] = rats, colloidal solution; cited from earlier work
[5] = dispersion of YM022 in HPMC and polyoxyethylene hydrogenated castor oil administered to aqueous solution; cited from earlier work
[6] = HPMCAS-MF 0 mg/mL (amorphous drug alone)

HPLC Total Dissolved Drug 1 at 90 min. [1, 6]: 224 µg/mL | HPLC Total Dissolved Drug 1 at 1200 min. [1, 6]: 196 µg/mL | HPLC Total Dissolved Drug 1 at 90 min. ([1]; HPMCAS-MF 0.5 mg/mL): 447 µg/mL | HPLC Total Dissolved Drug 1 at 1200 min. ([1]; HPMCAS-MF 0.5 mg/mL): 289 µg/mL | HPLC Total Dissolved Drug 1 at 90 min. ([1]; HPMCAS-MF 1 mg/mL): 487 µg/mL | HPLC Total Dissolved Drug 1 at 1200 min. ([1]; HPMCAS-MF 1 mg/mL): 203 µg/mL | HPLC Total Dissolved Drug 1 at 90 min. ([1]; HPMCAS-MF 5 mg/mL): 4928 µg/mL | HPLC Total Dissolved Drug 1 at 1200 min. ([1]; HPMCAS-MF 5 mg/mL): 1550 µg/mL | HPLC Total Dissolved Drug 1 at 90 min. ([1]; HPMCAS-MF 10 mg/mL): 7453 µg/mL | HPLC Total Dissolved Drug 1 at 1200 min. ([1]; HPMCAS-MF 10 mg/mL): 5431 µg/mL | HPLC Total Dissolved Drug 1 at 90 min. ([1]; HPMCAS-MF 20 mg/mL): 8099 µg/mL | HPLC Total Dissolved Drug 1 at 1200 min. ([1]; HPMCAS-MF 20 mg/mL): 7451 µg/mL
SMILES: O=C(N[C@@H](Cc1ccccc1)[C@@H](O)C(=O)N1C[C@@H](O)[C@@H](O)C1)c1cc2cc(Cl)ccc2[nH]1 [Drug 1, 5-chloro-1H-indole-2-carboxylic acid [(1S)-benzyl-3-((3R, 4S)-dihydroxypyrroldin-1-yl-)-(2R)-hydroxy-3-oxypropyl] amide]

solubility ([2]; PBS with 2% NaTC/POPC, fassgf or other biorelevant, Solubility of crystalline Drug 2 in 2% NaTC/POPC in PBS, 2% NaTC/POPC in PBS): 6 µg/mL (≈ 9.99 µM) | solubility ([2]; PBS, Solubility of the crystalline Drug 2): 0.01 µg/mL (≈ 0.0167 µM) | solubility ([2]; aqueous solution without micelles, Solubility of Drug 2 in aqueous solution without micelles, crystalline Drug 2, separate experiments): ~0.01 µg/mL (≈ 0.0167 µM) | Solubility of Drug 2 in aqueous solution without micelles ([2]; crystalline Drug 2, separate experiments): approximately 0.010 μg/mL | Kp, partition coefficient for drug partitioning between water and micelles [3]: 30,000 | Drug 2 Concentration, NaTC/POPC Conc. 0 wt % ([3]; crystalline Drug 2, value obtained in a separate experiment): 0.01 µg/mL
SMILES: CCOC(=O)N1c2ccc(C(F)(F)F)cc2C(N(Cc2cc(C(F)(F)F)cc(C(F)(F)F)c2)C(=O)OC)CC1CC (stereo not drawn) [Drug 2, 4-[(3,5-bis-trifluoromethyl-benzyl)-methoxycarbonyl-amino]-2-ethyl-6-trifluoromethyl-3,4-dihydro-2H-quinoline-1-carboxylic acid ethyl ester]

solubility ([2]; Solubility of Drug 3, crystalline Drug 3): 0.004 µg/mL (≈ 0.00745 µM)
SMILES: Cc1ncccc1CNC(=O)c1ccc2c(c1)CC[C@@H]1C[C@@](O)(CCC(F)(F)F)CC[C@@]21Cc1ccccc1 [Drug 3, 2-phenanthrenecarboxamide, 4b,5,6,7,8,8a,9,10-octahydro-7-hydroxy-N-[(2-methyl-3-pyridinyl)methyl]-4b-(phenylmethyl)-7-(3,3,3-trifluoropropyl)-, (4bS,7S,8aR)-]

SMILES: Cc1cccc(NC(=O)N[C@@H]2N=C(c3ccccc3)c3ccccc3N(CC(=O)c3ccccc3C)C2=O)c1 [YM022]
Absorption on oral administration [4]: good absorption | Mean diameter of colloidal particles [5]: 160 nm
